Measurements as given in ChEMBL document CHEMBL3885861, “Open TG-GATES”.

Species: Rattus norvegicus
Assay: Open TG-GATES - Regimen: Single
Format: toxicity, organism-based, Sprague-Dawley
Set-up: regimen Single, gender Male, age 6 weeks
Details: in vivo, po, route gavage; for TP / gamma-GTP / ALP / ALT / AST / BUN / CRE / Ca / Cl / DBIL / GLC / IP / K / LDH / Na / PL / RALB / TBIL / TC / TG: tissue Plasma; for APTT / Bas / Eos / Fbg / Hb / Ht / Lym / MCH / MCHC / MCV / Mono / Neu / PT / Plat / RBC / Ret / WBC: tissue Blood; for KIDNEY_L / KIDNEY_R / KIDNEY_TOTAL: tissue Kidney; for LIVER: tissue Liver
[1] = 300 mg/kg, 24 h, dose level Low
[2] = 1000 mg/kg, 3 h, dose level Middle
[3] = 1000 mg/kg, 6 h, dose level Middle
[4] = 1000 mg/kg, 9 h, dose level Middle
[5] = 1000 mg/kg, 24 h, dose level Middle

`CCOc1ccc(NC(C)=O)cc1` [PHENACETIN] was tested, and the TP [1] was 5.7 g/dL, the gamma-GTP [1] was 1.2 IU/L and the TERMINAL_BW [2] was 211.4 g. It also gave an APTT [2] of 16.8 s, a Bas [2] of 0% and an Eos [2] of 1%. For the same compound, the Fbg [2] was 302.8 mg/dL, the Hb [2] was 13.4 g/dL and the Ht [2] was 39.6%. For the same compound, the Lym [2] was 75.6%, the MCH [2] was 20.9 pg and the MCHC [2] was 33.9%. The MCV [2] was 61.6 fL, the Mono [2] was 2.8% and the Neu [2] was 20.4%. For the same compound, the PT [2] was 13.9 s, the Plat [2] was 119.7 x10_4/uL and the RBC [2] was 643.4 x10_4/ul. The Ret [2] was 8.8%, the WBC [2] was 62.5 x10_2/uL and the KIDNEY_L [2] was 0.9 g. The KIDNEY_R [2] was 0.9 g, the KIDNEY_TOTAL [2] was 1.8 g and the LIVER [2] was 9.2 g. The ALP [2] was 1732.2 IU/L, the ALT [2] was 35 IU/L and the AST [2] was 69 IU/L. The BUN [2] was 9.4 mg/dL, the CRE [2] was 0.1 mg/dL and the Ca [2] was 11 mg/dL. For the same compound, the Cl [2] was 100.4 meq/L, the DBIL [2] was 0 mg/dL and the GLC [2] was 232 mg/dL. It also gave an IP [2] of 10.8 mg/dL, a K [2] of 3.6 meq/L and an LDH [2] of 64.8 IU/L. The Na [2] was 139.8 meq/L, the PL [2] was 150.8 mg/dL and the RALB [2] was 2.6 g/dL. It also gave a TBIL [2] of 0.032 mg/dL, a TC [2] of 87 mg/dL and a TG [2] of 50.6 mg/dL. For the same compound, the TP [2] was 5.5 g/dL, the gamma-GTP [2] was 1.4 IU/L and the TERMINAL_BW [3] was 206.1 g. For the same compound, the APTT [3] was 18 s, the Bas [3] was 0% and the Eos [3] was 0.2%. For the same compound, the Fbg [3] was 311.4 mg/dL, the Hb [3] was 13.9 g/dL and the Ht [3] was 40.7%. The Lym [3] was 73.2%, the MCH [3] was 21.1 pg and the MCHC [3] was 34.2%. It also gave an MCV [3] of 61.6 fL, a Mono [3] of 2% and a Neu [3] of 24.2%. The PT [3] was 14.2 s, the Plat [3] was 124.9 x10_4/uL and the RBC [3] was 661 x10_4/ul. It also gave a Ret [3] of 9%, a WBC [3] of 54.6 x10_2/uL and a KIDNEY_L [3] of 0.9 g. It also gave a KIDNEY_R [3] of 0.9 g, a KIDNEY_TOTAL [3] of 1.9 g and an LIVER [3] of 8.8 g. For the same compound, the ALP [3] was 1388 IU/L, the ALT [3] was 40.4 IU/L and the AST [3] was 76 IU/L. The BUN [3] was 11.2 mg/dL, the CRE [3] was 0.1 mg/dL and the Ca [3] was 10.9 mg/dL. The Cl [3] was 102.6 meq/L, the DBIL [3] was 0 mg/dL and the GLC [3] was 188.4 mg/dL. It also gave an IP [3] of 9.8 mg/dL, a K [3] of 4 meq/L and an LDH [3] of 73.6 IU/L. For the same compound, the Na [3] was 139.2 meq/L, the PL [3] was 151.8 mg/dL and the RALB [3] was 2.6 g/dL. The TBIL [3] was 0.04 mg/dL, the TC [3] was 94.2 mg/dL and the TG [3] was 23.4 mg/dL. The TP [3] was 5.6 g/dL, the gamma-GTP [3] was 1.2 IU/L and the TERMINAL_BW [4] was 205.3 g. The APTT [4] was 17.2 s, the Bas [4] was 0% and the Eos [4] was 1%. The Fbg [4] was 302.6 mg/dL, the Hb [4] was 14 g/dL and the Ht [4] was 40.8%. It also gave a Lym [4] of 76.2%, an MCH [4] of 21.1 pg and an MCHC [4] of 34.3%. The MCV [4] was 61.4 fL, the Mono [4] was 3.4% and the Neu [4] was 18.6%. For the same compound, the PT [4] was 14.1 s, the Plat [4] was 120 x10_4/uL and the RBC [4] was 664.6 x10_4/ul. For the same compound, the Ret [4] was 8.5%, the WBC [4] was 49.5 x10_2/uL and the KIDNEY_L [4] was 0.9 g. It also gave a KIDNEY_R [4] of 0.9 g, a KIDNEY_TOTAL [4] of 1.9 g and an LIVER [4] of 8.8 g. The ALP [4] was 1337.2 IU/L, the ALT [4] was 38.6 IU/L and the AST [4] was 70.2 IU/L. It also gave a CRE [4] of 0.1 mg/dL, a Ca [4] of 10.9 mg/dL and a Cl [4] of 101.6 meq/L. The DBIL [4] was 0.006 mg/dL, the GLC [4] was 205.2 mg/dL and the IP [4] was 9 mg/dL. It also gave a K [4] of 3.9 meq/L, an LDH [4] of 82 IU/L and a PL [4] of 160.6 mg/dL. The RALB [4] was 2.6 g/dL, the TBIL [4] was 0.046 mg/dL and the TC [4] was 95.2 mg/dL. The TG [4] was 32.6 mg/dL, the TP [4] was 5.6 g/dL and the gamma-GTP [4] was 1.2 IU/L. For the same compound, the TERMINAL_BW [5] was 204.2 g, the APTT [5] was 17 s and the Bas [5] was 0%. It also gave an Eos [5] of 1%, a Fbg [5] of 291.6 mg/dL and a Hb [5] of 13.4 g/dL. The Ht [5] was 40.1%, the Lym [5] was 69% and the MCH [5] was 20.5 pg. For the same compound, the MCHC [5] was 33.5%, the MCV [5] was 61.2 fL and the Mono [5] was 3.2%. It also gave a Neu [5] of 26.2%, a Plat [5] of 127.8 x10_4/uL and an RBC [5] of 654.4 x10_4/ul. The Ret [5] was 7.5%, the WBC [5] was 82.6 x10_2/uL and the KIDNEY_L [5] was 1 g. For the same compound, the KIDNEY_R [5] was 1 g, the KIDNEY_TOTAL [5] was 1.9 g and the LIVER [5] was 8.7 g. It also gave an ALP [5] of 1673.4 IU/L, an ALT [5] of 53.6 IU/L and an AST [5] of 118.8 IU/L. The BUN [5] was 13.6 mg/dL, the CRE [5] was 0.2 mg/dL and the Ca [5] was 10.9 mg/dL. It also gave a Cl [5] of 105 meq/L, a DBIL [5] of 0.038 mg/dL and a GLC [5] of 167 mg/dL. For the same compound, the IP [5] was 9.2 mg/dL, the K [5] was 4.6 meq/L and the LDH [5] was 202.2 IU/L. The Na [5] was 141.6 meq/L, the PL [5] was 166.6 mg/dL and the RALB [5] was 2.6 g/dL. The TBIL [5] was 0.052 mg/dL.
